Test results: patent US20190276376A1, “CAPSULES COMPRISING BENZYLPROPARGYLETHERS FOR USE AS NITRIFICATION INHIBITORS” (BASF SE, priority 2016, published 2019)

Legend:
[1] = Vapor pressure by thermogravimetry; type: physicochemical; conditions: at 20° C.; Mettler Toledo STAR thermogravimeter
Experimental: The vapor pressure can be determined by thermogravimetry by methods known in the art. In the context of the present invention, a Mettler Toledo STAR thermogravimeter with 5 mg sample on a glass plate may be used. As a reference compound, 3,4-dimethyl pyrazole (DMP) was inter alia measured and a vapor pressure of 3.7 Pa at 20° C. was determined.

N2O emissions = N2O emissions from potted lettuce in greenhouse soil, gas chamber sampling, GC-ECD; type: in vivo, Green head lettuce; conditions: total cumulated N2O emissions, % inhibition compared to control; greenhouse 20° C., 60% humidity
Experimental: Green head lettuce was seeded in seedling boxes. Once the 4 leaf stage was reached one plant was potted into a 8 cm pot in standard greenhouse soil (mixture of peat, loam and sand) and grown in the greenhouse at 20° C. and 60% humidity. One week after planting the plants, the pots were separated out and each pot set onto a plant saucer designed with an inner compartment for the pot and an outer ring that is filled with water. At time 0, water with or without various concentrations of fertilizer and with either empty formulation or formulated capsule suspensions was applied to the plant such that the water holding capacity of the soil was around 50%. Then a gas sampling chamber was placed over the plant saucer such that the rim fit into the ring filled with water to create a gas-tight chamber and 20 cc air from the chamber were drawn into a syringe and immediately emptied in to a Vacutainer (Labco, 12 ml volume). This equals the Time Zero measurement for each pot. The same procedure was performed with all pots in the experiment. After incubation time of 1 h, again 20 cc air samples were taken from the gas chambers and emptied into Vacutainers as described above. […]
Samples were analyzed in a Shimadzu 2014 GC equipped with an ECD system. Total cumulated N2O emissions were calculated and related by calculating the % inhibition compared to control.

| SMILES | vapor pressure [1] | Inhibition (%) N2O emissions (N2O emissions) |
| --- | --- | --- |
| Cc1cn[nH]c1C [3,4-dimethyl pyrazole (DMP), 3,4-dimethyl pyrazole] | 3.7 Pa | – |
| C#CCOCc1ccc(Cl)cc1 [Example A-10] | – | 25% |
